Measured values reported in patent US6767549B2, “Ionic polymers as anti-infective agents” (Genzyme Corporation, priority 1996, dated 2004).

System: C. parvum
Assay: In vitro activity against C. parvum infectivity in MDBK cell monolayers (indirect immunofluorescence assay)
Format: cell-based
Details: Cryptosporidium parvum, 2 mg/mL, positive control drug, 48 hours
Experimental: Confluent MDBK cell monolayers were grown on 16 well slides, and infected with 5×10^5 of C. parvum oocysts per well. Various dilutions of the test reagents in dimethylsulfoxide (DMSO) were added to the monolayers and cultures were incubated at 37° C.(8% CO2) for 48 hours. The level of C. parvum infections was determined and analysed by an indirect immunofluorescence (IF) assay at 48 hours. Anti-C. parvum sporozoite rabbit serum (1:1000) was used as the primary antibody, and fluorscein-conjugated anti rabbit goat serum (1:100) was used as the secondary antibody. Each dilution was tested in quadruple, and each assay was performed at least two times. The monolayers were methanol fixed and, after IF labelling, the number of parasites observed in 10 high power fields (HPF) per well in each of the four wells per dilution was counted, statistically analysed and compared with infected wells which contained DMSO only. Paromomycin was used as the positive control drug.

NC[C@@H]1O[C@H](O[C@H]2[C@@H](O)[C@H](O[C@@H]3[C@@H](O)[C@H](N)C[C@H](N)[C@H]3O[C@H]3O[C@H](CO)[C@@H](O)[C@H](O)[C@H]3N)O[C@@H]2CO)[C@H](N)[C@@H](O)[C@@H]1O [paromomycin]
inhibition at 2000 µg/mL: 79.4%
